Experimental data reported in paper PMC9133015 (Nature Communications, 2022).
Where “and” joins values, the source holds several entries; their conditions need not be identical. Equal values may be shown once.

Experiments:
Assay in all cases: Kinase inhibitor specificity profiling (Reaction Biology Corporation)
Format in all cases: biochemical
Set-up in all cases: % Enzyme Activity (relative to DMSO controls): concentration or dose not given beside the values
[1] = target: T1, panel of 370 protein kinases (Homo sapiens, UniProt O14920); settings: 2 h, kinase IKKb/IKBKB; read-out: % Enzyme Activity (relative to DMSO controls)
T1 construct: purchased Reaction Biology Corporation (assay service)

[2] = target: T2, panel of 370 protein kinases (Homo sapiens, UniProt O15075); settings: kinase DCAMKL1
T2 construct: purchased Reaction Biology Corporation (assay service)

[3] = target: T3, panel of 370 protein kinases (Homo sapiens, UniProt O96013); settings: 2 h, kinase PAK4; read-out: % Enzyme Activity (relative to DMSO controls)
T3 construct: purchased Reaction Biology Corporation (assay service)

[4] = target: T4, panel of 370 protein kinases (Homo sapiens, UniProt P08581); settings: kinase c-MET
T4 construct: purchased Reaction Biology Corporation (assay service)

[5] = target: T5, panel of 370 protein kinases (Homo sapiens, UniProt P21709); settings: 2 h, kinase EPHA1; read-out: % Enzyme Activity (relative to DMSO controls)
T5 construct: purchased Reaction Biology Corporation (assay service)

[6] = target: T6, panel of 370 protein kinases (Homo sapiens, UniProt P21802); settings: 2 h, kinase FGFR2; read-out: % Enzyme Activity (relative to DMSO controls)
T6 construct: purchased Reaction Biology Corporation (assay service)

[7] = target: T7, panel of 370 protein kinases (Homo sapiens, UniProt P22607); settings: 2 h, kinase FGFR3; read-out: % Enzyme Activity (relative to DMSO controls)
T7 construct: purchased Reaction Biology Corporation (assay service)

[8] = target: T8, panel of 370 protein kinases (Homo sapiens, UniProt P29597); settings: kinase TYK2
T8 construct: purchased Reaction Biology Corporation (assay service)

[9] = target: T9, panel of 370 protein kinases (Homo sapiens, UniProt P42681); settings: 2 h, kinase TXK; read-out: % Enzyme Activity (relative to DMSO controls)
T9 construct: purchased Reaction Biology Corporation (assay service)

[10] = target: T10, panel of 370 protein kinases (Homo sapiens, UniProt Q12852); settings: kinase DLK/MAP3K12
T10 construct: purchased Reaction Biology Corporation (assay service)

[11] = target: T11, panel of 370 protein kinases (Homo sapiens, UniProt Q13177); settings: 2 h, kinase PAK2; read-out: % Enzyme Activity (relative to DMSO controls)
T11 construct: purchased Reaction Biology Corporation (assay service)

[12] = target: T12, panel of 370 protein kinases (Homo sapiens, UniProt Q15349); settings: 2 h, kinase RSK3; read-out: % Enzyme Activity (relative to DMSO controls)
T12 construct: purchased Reaction Biology Corporation (assay service)

[13] = target: T13, panel of 370 protein kinases (Homo sapiens, UniProt Q15375); settings: 2 h, kinase EPHA7; read-out: % Enzyme Activity (relative to DMSO controls)
T13 construct: purchased Reaction Biology Corporation (assay service)

[14] = target: T14, panel of 370 protein kinases (Homo sapiens, UniProt Q15569); settings: 2 h, kinase TESK1; read-out: % Enzyme Activity (relative to DMSO controls)
T14 construct: purchased Reaction Biology Corporation (assay service)

[15] = target: T15, panel of 370 protein kinases (Homo sapiens, UniProt Q15831); settings: 2 h, kinase LKB1; read-out: % Enzyme Activity (relative to DMSO controls)
T15 construct: purchased Reaction Biology Corporation (assay service)

[16] = target: T16, panel of 370 protein kinases (Homo sapiens, UniProt Q8IU85); settings: 2 h, kinase CAMK1d; read-out: % Enzyme Activity (relative to DMSO controls)
T16 construct: purchased Reaction Biology Corporation (assay service)

[17] = target: T17, panel of 370 protein kinases (Homo sapiens, UniProt Q9H2X6); settings: 2 h, kinase HIPK2; read-out: % Enzyme Activity (relative to DMSO controls)
T17 construct: purchased Reaction Biology Corporation (assay service)

[18] = target: T18, panel of 370 protein kinases (Homo sapiens, UniProt Q9H4B4); settings: 2 h, kinase PLK3; read-out: % Enzyme Activity (relative to DMSO controls)
T18 construct: purchased Reaction Biology Corporation (assay service)

[19] = target: T19, panel of 370 protein kinases (Homo sapiens, UniProt Q9HBH9); settings: 2 h, kinase MNK2; read-out: % Enzyme Activity (relative to DMSO controls)
T19 construct: purchased Reaction Biology Corporation (assay service)

[20] = target: T20, panel of 370 protein kinases (Homo sapiens, UniProt Q9NQU5); settings: 2 h, kinase PAK6; read-out: % Enzyme Activity (relative to DMSO controls)
T20 construct: purchased Reaction Biology Corporation (assay service)

[21] = target: T21, panel of 370 protein kinases (Homo sapiens, UniProt Q9UQB9); settings: 2 h, kinase AURORA C; read-out: % Enzyme Activity (relative to DMSO controls)
T21 construct: purchased Reaction Biology Corporation (assay service)

[22] = target: T22, panel of 370 protein kinases (Homo sapiens, UniProt Q9Y2U5); settings: 2 h, kinase MEKK2; read-out: % Enzyme Activity (relative to DMSO controls)
T22 construct: purchased Reaction Biology Corporation (assay service)

T8 sequence (P29597 whole entry): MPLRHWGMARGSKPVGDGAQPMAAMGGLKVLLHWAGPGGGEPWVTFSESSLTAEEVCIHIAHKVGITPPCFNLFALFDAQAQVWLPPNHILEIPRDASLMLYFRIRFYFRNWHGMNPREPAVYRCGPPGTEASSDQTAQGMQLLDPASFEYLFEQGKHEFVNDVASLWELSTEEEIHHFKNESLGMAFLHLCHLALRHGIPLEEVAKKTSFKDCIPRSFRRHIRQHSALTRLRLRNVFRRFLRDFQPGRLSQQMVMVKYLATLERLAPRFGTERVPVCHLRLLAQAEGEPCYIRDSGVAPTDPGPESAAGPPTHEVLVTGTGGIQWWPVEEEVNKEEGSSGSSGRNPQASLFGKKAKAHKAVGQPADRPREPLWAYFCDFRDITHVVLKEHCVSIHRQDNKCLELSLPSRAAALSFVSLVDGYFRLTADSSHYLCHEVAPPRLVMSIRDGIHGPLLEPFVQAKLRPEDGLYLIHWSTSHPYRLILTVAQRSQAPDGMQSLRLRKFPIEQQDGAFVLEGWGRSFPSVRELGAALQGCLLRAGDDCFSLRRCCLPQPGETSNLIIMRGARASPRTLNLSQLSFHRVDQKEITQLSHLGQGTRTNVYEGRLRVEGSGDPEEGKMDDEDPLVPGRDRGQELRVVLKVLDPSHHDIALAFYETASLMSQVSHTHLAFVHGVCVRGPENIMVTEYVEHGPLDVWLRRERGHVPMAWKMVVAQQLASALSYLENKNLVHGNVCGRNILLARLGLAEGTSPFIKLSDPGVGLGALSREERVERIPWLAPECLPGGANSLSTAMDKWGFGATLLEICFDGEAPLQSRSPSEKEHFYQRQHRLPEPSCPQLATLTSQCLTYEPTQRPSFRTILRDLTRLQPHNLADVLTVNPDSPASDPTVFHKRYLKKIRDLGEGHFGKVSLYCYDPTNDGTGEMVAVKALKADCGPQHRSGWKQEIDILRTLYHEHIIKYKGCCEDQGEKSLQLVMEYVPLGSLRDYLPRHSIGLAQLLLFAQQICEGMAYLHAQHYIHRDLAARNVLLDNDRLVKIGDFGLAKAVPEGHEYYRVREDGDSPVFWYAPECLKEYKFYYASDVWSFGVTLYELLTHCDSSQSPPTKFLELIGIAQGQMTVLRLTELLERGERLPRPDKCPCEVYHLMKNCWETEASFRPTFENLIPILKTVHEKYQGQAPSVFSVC
T10 sequence (Q12852 whole entry): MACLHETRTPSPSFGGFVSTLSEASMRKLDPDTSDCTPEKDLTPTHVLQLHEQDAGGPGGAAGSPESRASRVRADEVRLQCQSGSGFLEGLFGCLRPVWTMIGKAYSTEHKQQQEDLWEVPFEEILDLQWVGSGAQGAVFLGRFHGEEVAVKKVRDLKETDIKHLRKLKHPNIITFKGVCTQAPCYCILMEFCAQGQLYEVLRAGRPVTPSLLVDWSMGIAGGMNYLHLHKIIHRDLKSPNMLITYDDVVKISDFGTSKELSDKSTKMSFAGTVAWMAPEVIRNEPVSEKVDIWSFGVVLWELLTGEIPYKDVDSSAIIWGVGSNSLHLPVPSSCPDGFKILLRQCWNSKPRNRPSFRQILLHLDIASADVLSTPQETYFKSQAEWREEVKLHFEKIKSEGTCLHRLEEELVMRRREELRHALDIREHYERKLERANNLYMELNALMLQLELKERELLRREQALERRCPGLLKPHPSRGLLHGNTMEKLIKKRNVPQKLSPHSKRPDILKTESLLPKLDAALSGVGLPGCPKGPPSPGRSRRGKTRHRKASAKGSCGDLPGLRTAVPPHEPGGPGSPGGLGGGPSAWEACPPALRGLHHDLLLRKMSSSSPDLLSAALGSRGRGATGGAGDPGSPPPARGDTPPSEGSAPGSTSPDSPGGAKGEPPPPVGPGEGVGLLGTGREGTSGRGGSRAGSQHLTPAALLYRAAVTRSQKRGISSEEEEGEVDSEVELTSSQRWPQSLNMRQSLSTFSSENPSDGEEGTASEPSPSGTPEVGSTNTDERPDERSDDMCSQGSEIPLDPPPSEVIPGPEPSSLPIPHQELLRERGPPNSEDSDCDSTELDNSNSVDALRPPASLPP
T2 sequence (O15075 whole entry): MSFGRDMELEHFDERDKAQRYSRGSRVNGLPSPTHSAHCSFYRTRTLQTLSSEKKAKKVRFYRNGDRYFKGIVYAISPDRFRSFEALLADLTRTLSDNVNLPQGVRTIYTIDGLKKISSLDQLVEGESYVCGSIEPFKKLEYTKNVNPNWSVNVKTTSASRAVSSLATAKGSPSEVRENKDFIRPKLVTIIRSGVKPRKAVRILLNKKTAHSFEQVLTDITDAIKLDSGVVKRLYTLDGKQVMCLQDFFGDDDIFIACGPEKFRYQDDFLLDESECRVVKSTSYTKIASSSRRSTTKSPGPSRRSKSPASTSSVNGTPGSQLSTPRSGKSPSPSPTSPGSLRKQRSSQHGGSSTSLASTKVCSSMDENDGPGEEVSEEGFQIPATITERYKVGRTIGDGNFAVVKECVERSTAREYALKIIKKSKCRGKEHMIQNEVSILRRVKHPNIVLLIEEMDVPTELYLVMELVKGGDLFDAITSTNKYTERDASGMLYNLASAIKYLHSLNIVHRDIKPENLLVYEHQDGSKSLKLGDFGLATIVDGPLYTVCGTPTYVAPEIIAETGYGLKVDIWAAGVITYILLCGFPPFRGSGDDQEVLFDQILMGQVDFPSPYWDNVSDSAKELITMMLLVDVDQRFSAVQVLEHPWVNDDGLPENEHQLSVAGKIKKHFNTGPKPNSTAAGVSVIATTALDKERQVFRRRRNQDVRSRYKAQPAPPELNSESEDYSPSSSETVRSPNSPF
T4 sequence (P08581 25-1390): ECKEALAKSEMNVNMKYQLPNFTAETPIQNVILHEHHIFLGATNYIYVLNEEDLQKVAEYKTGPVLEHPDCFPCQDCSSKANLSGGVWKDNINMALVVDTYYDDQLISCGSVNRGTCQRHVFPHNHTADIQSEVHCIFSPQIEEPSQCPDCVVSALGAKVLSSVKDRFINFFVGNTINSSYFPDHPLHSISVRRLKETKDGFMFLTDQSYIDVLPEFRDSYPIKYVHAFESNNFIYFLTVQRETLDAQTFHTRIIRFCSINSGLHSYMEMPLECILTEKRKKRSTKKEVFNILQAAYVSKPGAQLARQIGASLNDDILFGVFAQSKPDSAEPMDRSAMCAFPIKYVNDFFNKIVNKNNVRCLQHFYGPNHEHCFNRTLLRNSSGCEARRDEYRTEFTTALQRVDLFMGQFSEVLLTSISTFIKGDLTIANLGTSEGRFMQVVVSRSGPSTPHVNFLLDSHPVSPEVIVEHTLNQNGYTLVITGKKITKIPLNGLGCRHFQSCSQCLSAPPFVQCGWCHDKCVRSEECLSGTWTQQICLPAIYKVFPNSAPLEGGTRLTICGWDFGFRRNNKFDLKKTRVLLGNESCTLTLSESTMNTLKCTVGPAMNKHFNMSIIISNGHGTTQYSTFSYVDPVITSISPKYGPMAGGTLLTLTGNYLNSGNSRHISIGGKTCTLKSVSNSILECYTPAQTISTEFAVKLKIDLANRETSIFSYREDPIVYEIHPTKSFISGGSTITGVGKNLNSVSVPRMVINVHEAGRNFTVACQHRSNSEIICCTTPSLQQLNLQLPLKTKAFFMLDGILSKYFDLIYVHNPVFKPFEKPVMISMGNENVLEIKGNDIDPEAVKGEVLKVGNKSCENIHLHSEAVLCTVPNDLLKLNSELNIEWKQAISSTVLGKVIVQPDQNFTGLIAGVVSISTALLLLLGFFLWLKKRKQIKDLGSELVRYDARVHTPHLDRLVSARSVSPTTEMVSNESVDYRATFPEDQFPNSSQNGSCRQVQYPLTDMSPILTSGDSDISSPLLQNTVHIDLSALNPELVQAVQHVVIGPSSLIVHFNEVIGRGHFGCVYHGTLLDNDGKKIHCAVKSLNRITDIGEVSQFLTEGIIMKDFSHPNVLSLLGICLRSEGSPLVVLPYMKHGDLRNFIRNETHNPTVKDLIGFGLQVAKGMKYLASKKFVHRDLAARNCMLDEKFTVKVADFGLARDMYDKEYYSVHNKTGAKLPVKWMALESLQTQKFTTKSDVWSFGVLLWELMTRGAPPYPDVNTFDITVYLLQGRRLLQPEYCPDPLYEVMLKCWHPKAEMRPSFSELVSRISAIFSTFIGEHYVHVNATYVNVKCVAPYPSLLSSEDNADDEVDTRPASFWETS
T1 sequence (O14920 whole entry): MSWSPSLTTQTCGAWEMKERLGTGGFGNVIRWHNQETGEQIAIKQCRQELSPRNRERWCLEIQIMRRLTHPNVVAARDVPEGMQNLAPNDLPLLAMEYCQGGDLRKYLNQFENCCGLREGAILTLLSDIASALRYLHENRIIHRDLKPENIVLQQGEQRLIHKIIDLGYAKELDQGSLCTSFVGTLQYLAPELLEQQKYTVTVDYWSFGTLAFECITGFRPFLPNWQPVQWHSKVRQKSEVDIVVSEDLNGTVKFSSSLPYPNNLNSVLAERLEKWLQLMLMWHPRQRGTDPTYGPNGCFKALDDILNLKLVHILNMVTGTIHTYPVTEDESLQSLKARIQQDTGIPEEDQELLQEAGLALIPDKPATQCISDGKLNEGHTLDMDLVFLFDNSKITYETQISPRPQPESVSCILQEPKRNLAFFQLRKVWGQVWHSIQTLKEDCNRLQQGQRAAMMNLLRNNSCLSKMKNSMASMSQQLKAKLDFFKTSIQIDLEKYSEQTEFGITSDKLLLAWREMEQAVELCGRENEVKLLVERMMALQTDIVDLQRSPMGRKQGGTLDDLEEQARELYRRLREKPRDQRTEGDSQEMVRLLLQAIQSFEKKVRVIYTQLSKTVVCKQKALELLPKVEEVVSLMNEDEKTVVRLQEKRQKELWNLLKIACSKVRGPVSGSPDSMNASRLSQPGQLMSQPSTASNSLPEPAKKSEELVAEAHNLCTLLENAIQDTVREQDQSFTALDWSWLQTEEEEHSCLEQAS

In the case of `CCN1CCN(C(=O)c2ccc(Nc3ncc(F)c(-c4ccc5nc(N(C)C)sc5c4)n3)nc2)CC1` [YK-2-69], the remaining activity at 1 µM [1] was 96%, the “% Enzyme Activity (relative to DMSO controls)” value [2] was 112.23% and 104.96% and the remaining activity at 1 µM [3] was 108%. The “% Enzyme Activity (relative to DMSO controls)” value [4] was 79.77% and 77.94%, the remaining activity at 1 µM [5] was 109% and the remaining activity at 1 µM [6] was 86.2%. The remaining activity at 1 µM [7] was 94%, the “% Enzyme Activity (relative to DMSO controls)” value [8] was 89.12% and 88.94% and the remaining activity at 1 µM [9] was 95.6%. For the same compound, the “% Enzyme Activity (relative to DMSO controls)” value [10] was 98.52% and 93.92%, the remaining activity at 1 µM [11] was 94.7% and the remaining activity at 1 µM [12] was 104%. It also gave a remaining activity at 1 µM [13] of 83%, a remaining activity at 1 µM [14] of 108% and a remaining activity at 1 µM [15] of 111%. It also gave a remaining activity at 1 µM [16] of 84.3%, a remaining activity at 1 µM [17] of 28.1% and a remaining activity at 1 µM [18] of 99.7%. For the same compound, the remaining activity at 1 µM [19] was 89.2%, the remaining activity at 1 µM [20] was 105% and the remaining activity at 1 µM [21] was 94.7%. The remaining activity at 1 µM [22] was 113%.
